In patent publication US7601738B2, “Excitatory amino acid receptor antagonists” (Eli Lilly and Company, priority 2001, dated 2009):

melting point | SMILES
> 183 °C (dec.) | Cl.O=C(O)c1cc2ccccc2cc1S[C@H]1CC[C@H]2CN[C@H](C(=O)O)C[C@H]2C1
> 177 °C (dec.) | Cc1ccc(C(=O)O)c(S[C@H]2CC[C@H]3CN[C@H](C(=O)O)C[C@H]3C2)c1.Cl
